Our source for the Ki, Ratio Ki and solubility values is ChEMBL document CHEMBL3739285, “Fluorescent sulfonamide carbonic anhydrase inhibitors incorporating 1,2,3-triazole moieties: Kinetic and X-ray crystallographic studies” (Bioorg Med Chem, 2016).

As a reminder, the pKi is the Ki on a negative log10 scale, so that one unit is a factor of ten. Low readings indicate a large Ki, high ones a small Ki. Broadly, the solubility is the dissolved amount per volume that the medium holds. Higher therefore signals a readily soluble substance.

pKi: −log10 of the molar value. In brackets after ≈: the same amount, converted by molar mass.

Data set [1] concerns the target Carbonic anhydrase 14 (Homo sapiens, UniProt Q9ULX7).
Description: Inhibition of human carbonic anhydrase-14 preincubated for 15 mins by stopped flow CO2 dehydration method
The species named for data set [2] is Homo sapiens. As to the kind of experiment: Selectivity ratio of Ki for human carbonic anhydrase-9 to Ki for human carbonic anhydrase-2.
Data set [3] concerns the target Carbonic anhydrase 2 (Homo sapiens, UniProt P00918). As to the kind of experiment: Inhibition of human carbonic anhydrase-2 preincubated for 15 mins by stopped flow CO2 dehydration method.
The target in data set [4] is Carbonic anhydrase 1 (Homo sapiens, UniProt P00915). As to the kind of experiment: Inhibition of human carbonic anhydrase-1 preincubated for 15 mins by stopped flow CO2 dehydration method.
For data set [5], the target named is Carbonic anhydrase 9 (Homo sapiens, UniProt Q16790).
Description: Inhibition of human carbonic anhydrase-9 preincubated for 15 mins by stopped flow CO2 dehydration method
Data set [6] deals with Carbonic anhydrase 12 (Homo sapiens, UniProt O43570). As to the kind of experiment: Inhibition of human carbonic anhydrase-12 preincubated for 15 mins by stopped flow CO2 dehydration method.
A short description of data set [7]: Solubility of the compound in phosphate buffer at pH 7.4. It is filed as physicochemical.

Carbonic anhydrase 14, sequence (Q9ULX7 whole entry): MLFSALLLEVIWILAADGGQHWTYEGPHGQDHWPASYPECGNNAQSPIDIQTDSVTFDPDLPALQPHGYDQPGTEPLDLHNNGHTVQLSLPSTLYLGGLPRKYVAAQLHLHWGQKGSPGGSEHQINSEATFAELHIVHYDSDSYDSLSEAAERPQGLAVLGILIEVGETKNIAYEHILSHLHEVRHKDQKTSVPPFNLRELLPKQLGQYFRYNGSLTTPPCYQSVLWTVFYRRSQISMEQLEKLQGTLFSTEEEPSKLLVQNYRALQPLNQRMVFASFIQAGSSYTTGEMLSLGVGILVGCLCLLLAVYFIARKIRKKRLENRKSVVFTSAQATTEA
Carbonic anhydrase 1, sequence (P00915 whole entry): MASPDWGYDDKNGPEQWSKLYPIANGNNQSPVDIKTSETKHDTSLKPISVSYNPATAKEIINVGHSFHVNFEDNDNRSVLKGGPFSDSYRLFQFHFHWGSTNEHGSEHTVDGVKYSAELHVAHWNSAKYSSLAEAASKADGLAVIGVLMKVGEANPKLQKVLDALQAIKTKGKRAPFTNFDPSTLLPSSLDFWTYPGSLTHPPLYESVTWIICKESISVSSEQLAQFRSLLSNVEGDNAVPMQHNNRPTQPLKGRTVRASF
Carbonic anhydrase 12, sequence (O43570 whole entry): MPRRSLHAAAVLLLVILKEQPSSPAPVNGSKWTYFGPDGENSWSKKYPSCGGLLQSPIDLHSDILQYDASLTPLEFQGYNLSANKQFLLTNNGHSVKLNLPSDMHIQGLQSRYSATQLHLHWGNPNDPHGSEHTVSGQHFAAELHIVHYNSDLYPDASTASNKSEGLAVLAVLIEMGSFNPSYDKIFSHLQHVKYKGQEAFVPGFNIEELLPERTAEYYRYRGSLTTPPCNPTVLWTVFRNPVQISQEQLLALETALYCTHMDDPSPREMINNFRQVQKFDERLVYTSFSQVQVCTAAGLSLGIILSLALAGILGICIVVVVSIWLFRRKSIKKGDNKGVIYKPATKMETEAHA

Take `CN(C)c1ccc2c(-c3ccc(NC(=S)NCc4cn(-c5cccc(S(N)(=O)=O)c5)nn4)cc3C(=O)O)c3ccc(=[N+](C)C)cc-3oc2c1`: the pKi in data set [1] is 7.50; in data set [3] it was 7.06; in data set [4], 5.19; in data set [5], 7.61; in data set [6], 7.97. In data set [2], the Ratio Ki came to 3.62.

For `NS(=O)(=O)c1ccc(-n2cc(CNC(=S)Nc3ccc(-c4c5ccc(=O)cc-5oc5cc(O)ccc45)c(C(=O)O)c3)nn2)cc1`, the pKi is 7.44 in data set [3], 5.59 in data set [4], 8.09 in data set [5] and 8.39 in data set [6]. In data set [7], this molecule came in with a solubility of 3.8 mg/mL (≈ 5.91 mM).

The molecule `NS(=O)(=O)c1ccc(CCNC(=S)Nc2ccc(-c3c4ccc(=O)cc-4oc4cc(O)ccc34)c(C(=O)O)c2)cc1` had a pKi in data set [1] of 7.48.

For the molecule `NS(=O)(=O)c1cccc(-n2cc(CNC(=S)Nc3ccc(-c4c5ccc(=O)cc-5oc5cc(O)ccc45)c(C(=O)O)c3)nn2)c1`, the pKi was 6.90 in data set [3], 5.12 in data set [4], 7.43 in data set [5] and 7.69 in data set [6].

With `NS(=O)(=O)c1ccc(CNC(=S)Nc2ccc(-c3c4ccc(=O)cc-4oc4cc(O)ccc34)c(C(=O)O)c2)cc1`, the negative-log Ki (pKi) in data set [1] is 7.39; in data set [6], 8.15. The same molecule yielded a solubility in data set [7] of 1.2 mg/mL (≈ 2.08 mM).
